Test system: Plasmodium falciparum
Test: MMV: IC50 determined against P. falciparum Dd2-luc strain using a Malaria Sybr Green I Fluorescence assay. Starting conditions were 1% trophozoite synchronised parasites at 2% haematocrit. Fluorescence detection completed after 48hr incubation at 37 degrees C under 1% O2, 3% CO2 and balance N2.
Type: functional, organism-based
Conditions: Dd2, 48 h

Row | Structure (SMILES) | IC50 [nM]
1 | CC1CCCCN1CCCNC(=O)c1ccc2c(c1)sc1nc(-c3ccc(F)cc3)cn12 (centres undefined) | 559
2 | COc1ccccc1CNC(=O)C1c2ccccc2C(=O)N(CC(C)C)C1c1cccs1 (centres undefined) | 1140
3 | Cc1[nH]c(-c2ccc(F)cc2)cc1C(=O)NC1CCN(Cc2ccccc2)CC1 | 1670
4 | CCN(CC)CCCNc1nc(-c2ccc(Cl)cc2)nc2ccccc12 | 425
5 | CCCCCCc1cc2cc(-c3nc4ccccc4[nH]3)c(=Nc3ccccc3C)oc2cc1O | 5720
6 | FC(F)(F)c1ccc(Nc2nnnc3ccccc23)cc1 | 3990
7 | CC1CC(C)CN(C(=O)c2ccc(Cl)cc2Cl)C1 (centres undefined) | 1880
8 | CCN1CCN(c2c(C(=O)c3ccccc3)cnc3cc(OC)c(OC)cc23)CC1 | 3340
9 | COc1cc2cc(C(=O)Nc3ccccc3)c(N)nc2cc1OC | 884
10 | Cc1cc(NCCN2CCCCC2)c2ccc3ccccc3c2n1 | 309
11 | CCOc1cc(Br)c(C(C)NC(=O)c2cccc(OC)c2)cc1OCC (centres undefined) | 1440
12 | CCCCNc1nc(NC(C)(C)C)nc(NC(C)(C)C)n1 | 893
13 | CC(C)(C)CC(C)(C)NCC(O)COc1ccc(Cl)cc1Cl (centres undefined) | 494
14 | CC1CCN(Cc2ccc(NC(=O)c3cc4ccc5cccnc5c4[nH]3)cc2)CC1 | 242
15 | COc1ccc(CN2CCCC(C(=O)c3ccc(C(F)(F)F)cc3)C2)c(O)c1 (centres undefined) | 635
16 | CCOC(=O)C1=C(C)N=c2sc(=Cc3ccccc3O)c(=O)n2C1c1ccc(OC)c2ccccc12 (centres undefined) | 1520
17 | CCC1(C)CC(CCNCc2ccccc2O)(c2ccc(C)cc2)CCO1 (centres undefined) | 141
18 | CCOc1cccc2sc(N(Cc3cccnc3)C(=O)C3CCCCC3)nc12 | 2700
19 | Cc1ccc(-c2cc(C(=O)Nc3ccc(S(=O)(=O)N4CCCCC4)cc3)[nH]n2)c(O)c1 | 2350
20 | Clc1ccc2c(N3CCCC3)ccnc2c1 | 1290
21 | COCCN(C(=O)Cc1cccs1)C(C(=O)NCc1ccc(OC)cc1)c1ccc(C(C)C)cc1 (centres undefined) | 975
22 | Cc1ccc(OCCCCCCNCCO)c(C)c1 | 2480
23 | CN(C)CCCNCc1ccc(-c2ccc(F)c(Cl)c2)o1 | 1160

Row | Structure (SMILES) | IC50 [nM]
24 | Cc1ccc(Cl)cc1N1CCN(CCCNC(=O)C2CCN(c3nc4ccccc4[nH]3)CC2)CC1 | 1300
25 | COc1ccccc1CNC(=O)CCn1c(=O)[nH]c2ccccc2c1=O | 518
26 | COc1ccccc1C(=O)ON=C(N)Cc1cccc2ccccc12 | 4020
27 | C=CCc1c(C)nc2ccccc2c1O | 1480
28 | CCOc1cc2c(cc1OCC)C(c1cc(OC)c(O)cc1Cl)NCC2 (centres undefined) | 120
29 | O=C(Nc1ccc(N2CCN(Cc3ccccc3)CC2)cc1)c1cccs1 | 742
30 | CC(O)(c1ccc(Cl)cc1)C(CN1CCCCC1)c1ccccc1 (centres undefined) | 314
31 | Cn1c(=O)c2cc(C(=O)NCCCN3CCCCCC3)sc2c2ccccc21 | 366
32 | COc1ccc(-c2cc(=O)oc3c4c(ccc23)OCN(Cc2ccc(F)cc2)C4)cc1 | 851
33 | CCCc1cc(O)c2c3c(c(=O)oc2c1)CN(C)CC3 | 2570
34 | CC(C)=CCN1CCC(C(=O)Nc2ccc(-c3nc4ccccc4[nH]3)cc2)CC1 | 1240
35 | Cc1cc(N2CCCC2)nc(Nc2ccc(NC(=O)CCc3ccccc3)cc2)n1 | 1260
36 | O=C(Nc1ccc(Cl)cc1)N1CCN(c2ccc3nncn3n2)CC1 | 1040
37 | COc1cc(SC)ccc1C(=O)N1CCCC(C)C1 (centres undefined) | 3950
38 | CC(C)(C)c1ccc(C(=O)Nc2nc3ccccc3s2)cc1 | 4150
39 | O=C(NC1CCN(Cc2ccccc2)CC1)c1cc(-c2ccncc2)nc2ccc(Cl)cc12 | 1480
40 | CCOc1cc2c(cc1OCC)C(c1cc(C)c(O)c(C)c1)NCC2 (centres undefined) | 654
41 | COc1ccc(C(=O)Nc2ccc(Cl)cc2C(=O)Nc2ccncc2)cc1 | 810
42 | COc1ccc(C2C(C(=O)Nc3cccc(OC)c3)c3ccccc3C(=O)N2C2CCCCC2)cc1 (centres undefined) | 2340
43 | COc1ccc2nc(N)nc(C)c2c1 | 1870
44 | c1ccc2c(NCCc3c[nH]c4ccccc34)c3ccccc3nc2c1 | 200
45 | CCCn1c(=N)c(C(=O)NC2CCCCC2)cc2c(=O)n3cccc(C)c3nc21 | 1640
46 | CCCN(CCC)CCCNC(=O)c1cc2c(-c3ccc(OC)c(OC)c3)nn(C)c2s1 | 1160

Row | Structure (SMILES) | IC50 [nM]
47 | CCCCCC(=O)N1c2ccccc2N=C2CC(c3ccc(OC)c(OC)c3)CC(O)=C2C1c1ccc(C(F)(F)F)cc1 (centres undefined) | 179
48 | Cc1sc(NC(=O)c2ccco2)c(C(c2cccnc2)N2CCC(Cc3ccccc3)CC2)c1C (centres undefined) | 1340
49 | c1ccc2c(NCCCCCCNc3c4c(nc5ccccc35)CCCC4)c3c(nc2c1)CCCC3 | 545
50 | CNCCCNc1ccnc2cc(Cl)ccc12 | 437
51 | O=C(NCc1ccco1)C1CCN(S(=O)(=O)c2ccc(Cl)cc2)CC1 | 878
52 | CCC(O)c1ccc(Br)cc1NC(=O)c1cccc(Cl)c1 (centres undefined) | 701
53 | O=C(NC1CCCC1)c1ccc(N2CCC(NCc3cccc(C(F)(F)F)c3)CC2)cc1 | 468
54 | Cc1cccc(-n2ncc3c(O)nc(-n4nc(C)cc4NC(=O)c4cc5ccccc5o4)nc32)c1 | 994
55 | O=C(Nc1nc(-c2ccccn2)cs1)c1ccccc1Br | 1610
56 | CCN1CCN(c2cc(C)c3cc(NC(=O)c4ccc(OC)c(OC)c4)ccc3n2)CC1 | 1850
57 | CCOc1ccc(Nc2c3ccccc3nc3ccccc23)cc1 | 1670
58 | CC(C)(C)c1ccc2c(c1)CN(Cc1ccc(Cl)cc1)CO2 | 196
59 | CC(=O)c1sc(NC(=O)Nc2ccc(C)cc2C)nc1C | 1970
60 | CN1CCN(c2nc(Nc3ccc(O)cc3)nc3ccccc23)CC1 | 1410
61 | CCc1c(C)c(=N)c2ccccc2n1C | 2770
62 | COc1cccc(C(=O)NC(c2ccc(C)cc2)c2cc(Cl)c3cccnc3c2O)c1 (centres undefined) | 940
63 | CN1CCN(c2ncnc3c2[nH]c2ccc(Cl)cc23)CC1 | 1180
64 | Fc1ccc2[nH]c3c(NCCCN4CCOCC4)ncnc3c2c1 | 335
65 | CCCCc1c(C)nc2c(OC)cccc2c1O | 1410
66 | Cc1cc(N2CCN(C3CCCC3)CC2)n2c(nc3ccccc32)c1C#N | 916
67 | COc1cc(C(=O)ON=C(N)Cc2cccc3ccccc23)cc(OC)c1OC | 3940
68 | CCn1c(CN2CCN(Cc3ccccc3)CC2)nc2cc(NC(=O)c3cccs3)ccc21 | 468
69 | CCCCCCn1c(=N)n(CC(O)COc2cccc(C)c2)c2ccccc21 (centres undefined) | 1800

Row | Structure (SMILES) | IC50 [nM]
70 | COc1cccc(C=Cc2nc(=O)c3ccccc3o2)c1OC | 426
71 | Cc1cccc(Nc2nc(N)c3ccccc3n2)c1 | 3500
72 | CCCc1c(C)nc2ccccc2c1O | 637
73 | Cc1ccc(C)c(-c2csc(Nc3ccc(C)c(C)c3)n2)c1 | 1050
74 | O=C(Nc1cccc(-c2nc3ccccc3[nH]2)c1)c1cccc(NC(=O)c2ccco2)c1 | 506
75 | Oc1ccc(C(=C(Cl)Cl)c2ccc(O)cc2)cc1 | 1910
76 | O=C(c1ccccc1F)N(Cc1ccc(Cl)cc1)c1ccccn1 | 1190
77 | CCOc1ccc(-c2nc(NC(=O)c3cccc(S(C)(=O)=O)c3)sc2C)cc1 | 1440
78 | CCN1CCCC1CNc1[nH]cnc2c3cc(Cl)ccc3nc1-2 (centres undefined) | 1450
79 | CCOc1cc(Cl)c(C(C)NC(=O)c2cccc(OC)c2)cc1OCC (centres undefined) | 649
80 | COc1ccc(CN2CCN(Cc3ccccc3)CC2)c(O)c1 | 1140
81 | COc1ccc(-c2nonc2NC(=O)c2cccc(C)c2)cc1OC | 904
82 | Cc1cc(C)c2nc(N3CCC(C(=O)NCCCN4CCC(N5CCCCC5)CC4)CC3)sc2c1 | 1280
83 | Cc1ccc(Cn2c(N3CCC(C(=O)NCc4cccs4)CC3)nc3ccccc32)cc1 | 826
84 | COc1cc(-c2nc(-c3ccc(Sc4ccccc4)cc3)c(-c3ccccc3)[nH]2)cc(OC)c1O | 734
85 | Cc1ccc(F)cc1NC(=O)c1cc(Cl)ccc1Nc1ccccc1 | 558
86 | Cc1ccc(Nc2nc(-c3ccccn3)cs2)cc1 | 479
87 | COc1cccc(Nc2nc(NCCO)c3ccccc3n2)c1 | 885
88 | CCOc1ccc(CN2CCN(CC(O)COc3ccc(OCC(O)CN4CCN(Cc5ccc(OCC)cc5)CC4)cc3)CC2)cc1 (centres undefined) | 948
89 | CC(C)OCc1cc(CN2CCN(c3cccc(Cl)c3)CC2)c(O)c2ncccc12 | 573
90 | COc1ccc(C(=O)Nc2ccc3nc(N4CCCCC4)cc(C)c3c2)cc1OC | 614
91 | CN1CCN(c2c3c(c(C#N)c4nc5ccccc5n24)CCC3)CC1 | 1490
92 | COc1ccc(C2c3ccc4ccccc4c3Oc3ncn(CCCn4ccnc4)c(=N)c32)cc1OC (centres undefined) | 1230

Row | Structure (SMILES) | IC50 [nM]
93 | O=C(Nc1ccc(Br)cc1)Nc1cccc(Cl)c1 | 3590
94 | O=c1nc(C=Cc2ccc(Cl)cc2)oc2ccccc12 | 1190
95 | Cc1cccc(N2C(=O)C3C(C2=O)C2(c4ccccc4)C(=O)C3(c3ccccc3)C(c3ccc4c(c3)OCO4)=C2c2ccc3c(c2)OCO3)c1 (centres undefined) | 1700
96 | O=C(Nc1ccc(CN2CCOCC2)cc1)c1ccc(-c2ccc(Br)cc2)o1 | 958
97 | COc1ccc(N2CCN(C(CNC(=O)C3CCCCC3)c3ccc4c(c3)OCO4)CC2)cc1 (centres undefined) | 569
98 | Oc1ccc(Br)cc1CN1CCN(Cc2cccc(F)c2)CC1 | 1290
99 | COc1ccc(C2N(C)c3ccccc3N2C)cc1 | 1100
100 | OC(CNCC1CCCO1)Cn1c2ccc(Cl)cc2c2cc(Cl)ccc21 (centres undefined) | 734
101 | CCN(CC)c1ccc(NC(=O)c2cccs2)cc1 | 514
102 | Cc1cc(C)cc(Nc2cc(C)nc3nc(C(F)(F)F)nn23)c1 | 137
103 | COc1cccc(C2(C)Nc3ccccc3-c3nc4ccccc4n32)c1 (centres undefined) | 1410
104 | CCOc1ccc(-c2nonc2NC(=O)c2cccc(C)c2)cc1OCC | 154
105 | CCOc1ccccc1CNC(=O)C1c2ccccc2C(=O)N(CC(C)C)C1c1cccs1 (centres undefined) | 1220
106 | CCCCNCC(O)(c1ccc(Cl)cc1)c1ccc(Cl)cc1 | 420
107 | COc1ccc2nc(C)cc(Nc3cccc(O)c3)c2c1 | 941
108 | Cc1ccc(NC(=O)Nc2cccc(Cl)c2)cc1F | 1210
109 | OC(CNC1CCCCC1)Cn1c2ccc(I)cc2c2cc(I)ccc21 (centres undefined) | 436
110 | COc1ccc(C(=O)C(CCC(CNC(C)(C)C)C(=O)c2ccc(OC)cc2)CNC(C)(C)C)cc1 (centres undefined) | 1600
111 | Cc1cc(NC(=O)C2c3ccccc3C(=O)N(CC(C)C)C2c2cccs2)no1 (centres undefined) | 160
112 | O=C(Nc1ccsc1C(=O)NC1CCCCC1)c1ccc(F)cc1 | 1040
113 | Cc1sc2ncnc(Sc3nc4ccccc4[nH]3)c2c1C | 844
114 | CN1CCN(c2ccc(Nc3c4ccccc4nc4ccccc34)cc2)CC1 | 1600

From ChEMBL document CHEMBL3392922, “MMV box screening in the Dd2 P. falciparum strain”
